Experimental data as given in patent US20240368096A1 (Enanta Pharmaceuticals, Inc., priority 2022, published 2024).
pEC50: −log10 of the molar value.

Test system: HBV
Assay: HBV infection in HepG2-NTCP cells (HBeAg AlphaLISA in supernatants)
Type: cell-based
Conditions: Hepatitis B virus, 192 h; HBV infection of HepG2-NTCP cells; HBeAg in supernatants at day 8 post infection; read-out: Cellular EC50
Outline: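 HepG2-NTCP A3 cells were pre-incubated 2 h with 3-fold serially diluted compounds, then infected with HBV at 2000 GE/cell with 4% PEG (0.5% DMSO final). After washing on day 1, cells stayed in 2.5% DMSO medium; supernatant HBeAg measured by AlphaLISA on day 8, EC50 versus DMSO controls.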

| Compound | pEC50 |
| --- | --- |
| CCCCC1CN(c2ccccc2)c2cc(C(F)(F)F)c(-c3ccc(F)c(C(=O)O)c3)cc2S(=O)(=O)N1C (centres unmarked) [Example 568, 5-(3-butyl-2-methyl-1,1-dioxido-5-phenyl-7-(trifluoromethyl)-2,3,4,5-tetrahydrobenzo[f][1,2,5]thiadiazepin-8-yl)-2-fluorobenzoic acid] | 6.00 to 7.00 |
| CN1[C@H](C2CCCCC2)CN(c2ccncc2)c2cc(Cl)c(-c3ccc(F)c(C(=O)O)c3)cc2S1(=O)=O [Example 283] | < 6.00 |
| CN1[C@H](C2CCCCC2)CN(c2ccccc2)c2cc(Cl)c(-c3cccc(S(N)(=O)=O)c3)cc2S1(=O)=O [Example 175] | < 6.00 |
| CN1[C@H](C2CCCCC2)CNc2cc(OCC(F)(F)F)c(-c3ccc(Cl)c(C(=O)O)c3)cc2S1(=O)=O [Example 477] | 6.00 to 7.00 |
| CC(C)C[C@@H]1CN(c2ccccc2)c2cc(Cl)c(-c3cccc(C(=O)C(=O)O)c3)cc2S(=O)(=O)N1C [Example 205, (R)-2-(3-(7-chloro-3-isobutyl-2-methyl-1,1-dioxido-5-phenyl-2,3,4,5-tetrahydrobenzo[f][1,2,5]thiadiazepin-8-yl)phenyl)-2-oxoacetic acid] | > 7.00 |
| CC(C)CC1CN(c2ccccc2)c2cc(Cl)c(-c3cncc(C(=O)O)c3)cc2S(=O)(=O)N1C (centres unmarked) [Example 35] | 6.00 to 7.00 |
| CN1[C@H](C2CC(F)(F)C2)CN(c2ccccc2)c2cc(Cl)c(-c3ccc(F)c(C(=O)O)c3)cc2S1(=O)=O [Example 30] | 6.00 to 7.00 |
| CC(C)C[C@@H]1CN(c2ccccc2)c2cc(Cl)c(-c3cc(C(=O)O)cc(C(F)(F)F)c3)cc2S(=O)(=O)N1C [Example 164] | 6.00 to 7.00 |
| CC(C)CC1CN(c2ccccc2)c2cc(Cl)c(-c3cccc(C(=O)O)c3)cc2S(=O)(=O)N1C (centres unmarked) [Example 33] | 6.00 to 7.00 |
| CN1[C@H](C2CCC2)CN(c2ccccc2)c2cc(OCC(F)(F)F)c(-c3ccc(F)c(C(=O)O)c3)cc2S1(=O)=O [Example 464] | 6.00 to 7.00 |
| CN1[C@H](C2CCCCC2)CN(c2ccccc2)c2cc(OC3CC4(CCOCC4)C3)c(-c3ccc(F)c(C(=O)O)c3)cc2S1(=O)=O [Example 383] | 6.00 to 7.00 |
| CN1[C@@H](CC2CCCCC2)CN(c2ccccc2)c2cc(Cl)c(-c3cccc(C(=O)O)c3)cc2S1(=O)=O [Example 43] | < 6.00 |
| CN1[C@H](C2CCCCC2)CN(c2ccccc2)c2cc(Cl)c(-c3ccc(C(=O)O)c(C(=O)O)c3)cc2S1(=O)=O [Example 213, (R)-4-(7-chloro-3-cyclohexyl-2-methyl-1,1-dioxido-5-phenyl-2,3,4,5-tetrahydrobenzo[f][1,2,5]thiadiazepin-8-yl)phthalic acid] | 6.00 to 7.00 |
| CSc1cc2c(cc1-c1cccc(C(=O)O)c1)S(=O)(=O)N1CC(C)(C)CC1CN2c1ccccc1 (centres unmarked) [Example 19] | 6.00 to 7.00 |
| CC(=O)NS(=O)(=O)c1cc(-c2cc3c(cc2Cl)N(c2ccccc2)C[C@@H](C2CCCCC2)N(C)S3(=O)=O)ccc1F [Example 223] | > 7.00 |
| CN1[C@H](C2CCCCC2)CN(c2ccccc2)c2cc(OCCC3CCN(C(=O)OC(C)(C)C)CC3)c(-c3ccc(F)c(C(=O)O)c3)cc2S1(=O)=O [Example 367] | > 7.00 |
| CN1[C@H](C2CCCCC2)CN(c2ccccc2)c2cc(OC3CCCCC3)c(-c3ccc(F)c(C(=O)O)c3)cc2S1(=O)=O [Example 374] | > 7.00 |
| CCCC[C@@H]1CN(c2ccccc2)c2cc(-n3nnnc3C)c(-c3ccc(F)c(C(=O)O)c3)cc2S(=O)(=O)N1C [Example 525] | < 6.00 |
| CCOC(=O)Nc1cc(-c2cc3c(cc2OCCOC)N(c2ccccc2)C[C@@H](C2CCCCC2)N(C)S3(=O)=O)sc1C(=O)O [Example 517] | > 7.00 |
| COCCOc1cc2c(cc1-c1cc(NC(=O)OCC(C)C)c(C(=O)O)s1)S(=O)(=O)N(C)[C@H](C1CCCCC1)CN2c1ccccc1 [Example 516, (R)-5-(3-cyclohexyl-7-(2-methoxyethoxy)-2-methyl-1,1-dioxido-5-phenyl-2,3,4,5-tetrahydrobenzo[f][1,2,5]thiadiazepin-8-yl)-3-((isobutoxycarbonyl)amino)thiophene-2-carboxylic acid] | > 7.00 |
| CC(C)C[C@@H]1CN(c2ccccc2)c2cc(Cl)c(-c3ccc(O)c(C(=O)O)c3)cc2S(=O)(=O)N1C [Example 160, (R)-5-(7-chloro-3-isobutyl-2-methyl-1,1-dioxido-5-phenyl-2,3,4,5-tetrahydrobenzo[f][1,2,5]thiadiazepin-8-yl)-2-hydroxybenzoic acid] | > 7.00 |
| CO[C@H]1CCN(c2cc3c(cc2-c2ccc(F)c(C(=O)O)c2)S(=O)(=O)N(C)[C@H](C2CCCCC2)CN3c2ccccc2)C1 [Example 532] | > 7.00 |
| CN1[C@H](C2CCCCC2)CN(c2ccccc2)c2cc(Cl)c(-c3cc(C(=O)O)c4nccn4c3)cc2S1(=O)=O [Example 211] | 6.00 to 7.00 |
| CN1[C@H](C2CCC2)CN(c2ccccc2)c2cc(Cl)c(-c3ccc([N+](=O)[O-])c(C(=O)O)c3)cc2S1(=O)=O [Example 203] | > 7.00 |
| CN1[C@H](C2CCCCC2)CN(c2ccccc2)c2cc(Cl)c(-c3cc4c(c(C(=O)O)c3)OC(F)(F)O4)cc2S1(=O)=O [Example 154, (R)-6-(7-chloro-3-cyclohexyl-2-methyl-1,1-dioxido-5-phenyl-2,3,4,5-tetrahydrobenzo[f][1,2,5]thiadiazepin-8-yl)-2,2-difluorobenzo[d][1,3]dioxole-4-carboxylic acid] | 6.00 to 7.00 |
| CCCCCCCCCCOc1cc2c(cc1-c1ccc(F)c(C(=O)O)c1)S(=O)(=O)N(C)[C@H](C1CCCCC1)CN2c1ccccc1 [Example 354] | 6.00 to 7.00 |

The remaining lines, values ahead:

| pEC50 | Compound |
| --- | --- |
| 6.00 to 7.00 | CN1[C@H](C2CCCCC2)CN(c2ccccc2)c2cc(C3CN(C(=O)OC(C)(C)C)C3)c(-c3ccc(F)c(C(=O)O)c3)cc2S1(=O)=O [Example 594] |
| > 7.00 | COc1cccc(Oc2cc3c(cc2-c2ccc(F)c(C(=O)O)c2)S(=O)(=O)N(C)[C@H](CC(C)C)CN3c2ccccc2)c1 [Example 427] |
| < 6.00 | CC(C)C[C@@H]1CN(c2ccccc2)c2cc(Cl)c(-c3cccc(/C=C/C(=O)O)c3)cc2S(=O)(=O)N1C [Example 171] |
| > 7.00 | CN1[C@H](C2CCCCC2)CN(c2ccccc2)c2cc(Cl)c(-c3ccc(NC(=O)Nc4ccccc4)c(C(=O)O)c3)cc2S1(=O)=O [Example 237, (R)-5-(7-chloro-3-cyclohexyl-2-methyl-1,1-dioxido-5-phenyl-2,3,4,5-tetrahydrobenzo[f][1,2,5]thiadiazepin-8-yl)-2-(3-phenylureido)benzoic acid] |
| 6.00 to 7.00 | CN1[C@H](C2CCOCC2)CN(c2ccccc2)c2cc(Cl)c(-c3ccc(F)c(C(=O)O)c3)cc2S1(=O)=O [Example 105, (R)-5-(7-chloro-2-methyl-1,1-dioxido-5-phenyl-3-(tetrahydro-2H-pyran-4-yl)-2,3,4,5-tetrahydrobenzo[f][1,2,5]thiadiazepin-8-yl)-2-fluorobenzoic acid] |
| > 7.00 | CN1[C@H](C2CCCCC2)CN(c2cccc(C#N)c2)c2cc(Cl)c(-c3ccc(F)c(C(=O)O)c3)cc2S1(=O)=O [Example 291] |
| 6.00 to 7.00 | CC(C)C[C@@H]1CN(c2ccccc2)c2cc(OC(C)(C)C(F)(F)F)c(-c3ccc(Cl)c(C(=O)O)c3)cc2S(=O)(=O)N1C [Example 452] |
| 6.00 to 7.00 | CN1[C@H](C2CCC(F)(F)CC2)CN(c2ccccc2)c2cc(Cl)c(-c3ccc(Cl)c(C(=O)O)c3)cc2S1(=O)=O [Example 29] |
| 6.00 to 7.00 | CN1[C@H](C2CCCCC2)CN(c2ccccc2)c2cc(OCCc3ccsc3)c(-c3ccc(F)c(C(=O)O)c3)cc2S1(=O)=O [Example 346] |
| 6.00 to 7.00 | CCCCCCN1C[C@@H](C2CCCCC2)N(C)S(=O)(=O)c2cc(-c3ccc(F)c(C(=O)O)c3)c(Cl)cc21 [Example 324] |
| 6.00 to 7.00 | CC(C)CC1CN(c2cccc(F)c2)c2cc(Cl)c(-c3cccc(C(=O)O)c3)cc2S(=O)(=O)N1C (centres unmarked) [Example 329] |
| < 6.00 | CCCCCCCC[C@@H]1CN(c2ccccc2)c2cc(Cl)c(-c3cc(F)c(F)c(C(=O)O)c3)cc2S(=O)(=O)N1C [Example 83] |
| 6.00 to 7.00 | CC(C)C[C@@H]1CN(c2ccccc2)c2cc(Nc3cccc(F)c3)c(-c3ccc(Cl)c(C(=O)O)c3)cc2S(=O)(=O)N1C [Example 547] |
| 6.00 to 7.00 | CSc1cc2c(cc1-c1cncc(C(=O)O)c1)S(=O)(=O)N1CC(C)(C)CC1CN2c1ccccc1 (centres unmarked) [Example 21] |
| < 6.00 | CC(C)C[C@@H]1CN(c2ccccc2)c2cc(-c3cccc(NC=O)c3O)c(-c3ccc(F)c(C(=O)O)c3)cc2S(=O)(=O)N1C [Example 577] |
| 6.00 to 7.00 | CN1[C@H](C2CCCCC2)CN(c2ccccc2)c2cc(Cl)c(-c3cc(C(=O)O)ccn3)cc2S1(=O)=O [Example 139, (R)-2-(7-chloro-3-cyclohexyl-2-methyl-1,1-dioxido-5-phenyl-2,3,4,5-tetrahydrobenzo[f][1,2,5]thiadiazepin-8-yl)isonicotinic acid] |
| 6.00 to 7.00 | CN1[C@H](CC(C)(C)C)CN(c2ccccc2)c2cc(Cl)c(-c3ccc(F)c(C(=O)O)c3)cc2S1(=O)=O [Example 50] |
| > 7.00 | CC(C)C[C@@H]1CN(c2ccccc2)c2cc(OCc3cocn3)c(-c3ccc(F)c(C(=O)O)c3)cc2S(=O)(=O)N1C [Example 462] |
| > 7.00 | CCOc1cccc(N2C[C@@H](C3CCCCC3)N(C)S(=O)(=O)c3cc(-c4ccc(F)c(C(=O)O)c4)c(Cl)cc32)c1 [Example 308] |
| 6.00 to 7.00 | CC(C)C[C@@H]1CN(C2CC(F)(F)C2)c2cc(Oc3ccccc3F)c(-c3ccc(F)c(C(=O)O)c3)cc2S(=O)(=O)N1C [Example 466, (R)-5-(5-(3,3-difluorocyclobutyl)-7-(2-fluorophenoxy)-3-isobutyl-2-methyl-1,1-dioxido-2,3,4,5-tetrahydrobenzo[f][1,2,5]thiadiazepin-8-yl)-2-fluorobenzoic acid] |
| > 7.00 | CC(C)C[C@@H]1CN(c2ccccc2)c2cc(Cl)c(-c3ccc(F)c(C(=O)O)c3)cc2S(=O)(=O)N1C [Example 59, (R)-5-(7-chloro-3-isobutyl-2-methyl-1,1-dioxido-5-phenyl-2,3,4,5-tetrahydrobenzo[f][1,2,5]thiadiazepin-8-yl)-2-fluorobenzoic acid] |
